Measured values taken from ChEMBL document CHEMBL1122087, “Computer graphics in drug design: molecular modeling of thyroid hormone-prealbumin interactions” (J Med Chem, 1982).

Molecular target: Transthyretin (Homo sapiens) (UniProt P02766)
Assay: Ability to displace L-[125I]thyoxine from the high affinity prealbumin binding site was expressed as ratio of its apparent association constant to that of L-thyroxine

Ka(T4) [%] | Structure (SMILES)
0.7 | NC(Cc1cc(I)c(Oc2cccc3ccc(O)cc23)c(I)c1)C(=O)O (configuration not stated)

Molecular target: Transthyretin (Homo sapiens) (UniProt P02766)
Assay: Ability to displace L-[125I]thyoxine from the high affinity prealbumin binding site was expressed as ratio of its apparent association constant to that of DL-thyroxine

Structure (SMILES) | Ka(T4) [%]
NC(Cc1cc(I)c(Oc2ccc(O)cc2)c(I)c1)C(=O)O (configuration not stated) | 0.3
NC(Cc1cc(I)c(Oc2ccc(O)c3ccccc23)c(I)c1)C(=O)O (configuration not stated) | 1.6
NC(Cc1cc(I)c(Oc2cccc3c(O)cccc23)c(I)c1)C(=O)O (configuration not stated) | 6.3
NC(Cc1cc(I)c(Oc2cc(Br)c(O)c3ccccc23)c(I)c1)C(=O)O (configuration not stated) | 28.7

Further lines, results first:

Ka(T4) [%] | Structure (SMILES)
8.6 | NC(Cc1cc(I)c(Oc2cc(Br)c(O)c(Br)c2)c(I)c1)C(=O)O (configuration not stated)
1.6 | NC(Cc1cc(I)c(Oc2ccc(O)c(Br)c2)c(I)c1)C(=O)O (configuration not stated)
